Measurements published in ChEMBL document CHEMBL1150456, “Synthesis of 2-O-heteroaroyl taxanes: evaluation of microtubule assembly promotion and cytotoxicity” (1995).

What was measured:
Tubulin (Bos taurus) = Tubulin (Bos taurus) (UniProt Q6B856+Q862L2+Q862F3); test: Concentration which causes polymerization of 50% of the tubulin present in 15 min at 37 degree C was tested in vitro relative to paclitaxel (1); format: functional
B16 = test: Concentration which produces 50% inhibition of proliferation of B16 melanoma cytotoxic cells after 40h of incubation was tested in vitro relative to paclitaxel (1); format: functional, Mus musculus

Ratio (Tubulin (Bos taurus)) | SMILES | Ratio (B16)
1 | CC(=O)O[C@H]1C(=O)[C@@]2(C)[C@H]([C@H](OC(=O)c3ccccc3)[C@]3(O)C[C@H](OC(=O)[C@H](O)[C@@H](NC(=O)c4ccccc4)c4ccccc4)C(C)=C1C3(C)C)[C@]1(OC(C)=O)CO[C@@H]1C[C@@H]2O [PACLITAXEL] | 1
1.1 | CC(=O)O[C@H]1C(=O)[C@]2(C)[C@@H](O)CC3OC[C@@]3(OC(C)=O)[C@H]2[C@H](OC(=O)c2cccs2)[C@]2(O)C[C@H](OC(=O)[C@H](O)[C@@H](NC(=O)c3ccccc3)c3ccccc3)C(C)=C1C2(C)C (stereo partly drawn) | 3.8
2.6 | CC(=O)O[C@H]1C(=O)[C@]2(C)[C@@H](O)CC3OC[C@@]3(OC(C)=O)[C@H]2[C@H](OC(=O)c2cccn2C)[C@]2(O)C[C@H](OC(=O)[C@H](O)[C@@H](NC(=O)c3ccccc3)c3ccccc3)C(C)=C1C2(C)C (stereo partly drawn) | 2.6
4 | CC(=O)O[C@H]1C(=O)[C@]2(C)[C@@H](O)CC3OC[C@@]3(OC(C)=O)[C@H]2[C@H](OC(=O)c2cccnc2)[C@]2(O)C[C@H](OC(=O)[C@H](O)[C@@H](NC(=O)c3ccccc3)c3ccccc3)C(C)=C1C2(C)C (stereo partly drawn) | >36
2.4 | CC(=O)O[C@H]1C(=O)[C@]2(C)[C@@H](O)CC3OC[C@@]3(OC(C)=O)[C@H]2[C@H](OC(=O)c2ccco2)[C@]2(O)C[C@H](OC(=O)[C@H](O)[C@@H](NC(=O)c3ccccc3)c3ccccc3)C(C)=C1C2(C)C (stereo partly drawn) | 14

Continued, molecule first:

SMILES | Ratio (Tubulin (Bos taurus)) | Ratio (B16)
CC(=O)O[C@H]1C(=O)[C@]2(C)[C@@H](O)CC3OC[C@@]3(OC(C)=O)[C@H]2[C@H](OC(=O)c2ccccn2)[C@]2(O)C[C@H](OC(=O)[C@H](O)[C@@H](NC(=O)c3ccccc3)c3ccccc3)C(C)=C1C2(C)C (stereo partly drawn) | 2.8 | 8.7
CC(=O)O[C@H]1C(=O)[C@]2(C)[C@@H](O)CC3OC[C@@]3(OC(C)=O)[C@H]2[C@H](OC(=O)c2ccsc2)[C@]2(O)C[C@H](OC(=O)[C@H](O)[C@@H](NC(=O)c3ccccc3)c3ccccc3)C(C)=C1C2(C)C (stereo partly drawn) | 1.4 | 2.1
CC(=O)O[C@H]1C(=O)[C@]2(C)[C@@H](O)CC3OC[C@@]3(OC(C)=O)[C@H]2[C@H](OC(=O)c2ccoc2)[C@]2(O)C[C@H](OC(=O)[C@H](O)[C@@H](NC(=O)c3ccccc3)c3ccccc3)C(C)=C1C2(C)C (stereo partly drawn) | 2.1 | 8.2
CC(=O)O[C@H]1C(=O)[C@]2(C)[C@@H](O)CC3OC[C@@]3(OC(C)=O)[C@H]2[C@H](OC(=O)c2ccncc2)[C@]2(O)C[C@H](OC(=O)[C@H](O)[C@@H](NC(=O)c3ccccc3)c3ccccc3)C(C)=C1C2(C)C (stereo partly drawn) | 7.3 | >36
